What follows are cell lines tested with COc1nc(N)nc2c1ncn2[C@@H]1O[C@H](CO)[C@@H](O)[C@@H]1O [Nelarabine] + CC(C)C[C@H](NC(=O)[C@H](Cc1ccccc1)NC(=O)c1cnccn1)B(O)O [Bortezomib] (partner 0.002 µM) (assay: relative viability (nuclei count vs DMSO), 5 days (fraction); higher = more cells survive). Conditions: first compound 0.01 µM.
Procedure, shortened: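 One day after seeding in 1536-well plates, lung cancer cell lines were dosed by pin tool. Dosing was either single-drug or a fixed anchor-drug dose plus five library-drug doses (not always all listed) in √10 steps. After 5 days, nuclei were stained in one fix-and-stain step and counted on 4× images, and relative viability is the nuclei count of treated wells over that of vehicle wells, given as the median of duplicate plates.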
With NCI-H2347 the relative viability was 1.27. NCI-H2405 showed a relative viability of 1.06. NCI-H3122 gave a relative viability of 1.03. For PC-3 [JPC-3], the relative viability was 1.08. In the case of PC-14, the relative viability is reported as 1.14. RERF-LC-KJ was tested, and the relative viability was 1.03. SK-LU-1 gave a relative viability of 1.56.

Same assay, conditions: first compound 0.03162 µM
In the case of LXF-289, the relative viability is reported as 0.99. In the case of NCI-H23, the relative viability is reported as 0.97. Work on NCI-H322M yielded a relative viability of 1.2. In the case of NCI-H441, the relative viability is reported as 0.71. Work on NCI-H460 yielded a relative viability of 1.34. Cell Line NCI-H520 has a relative viability of 0.552. NCI-H596 gave a relative viability of 0.651. NCI-H647 was tested, and the relative viability was 0.988. For NCI-H650, the relative viability was 0.703. NCI-H661 showed a relative viability of 0.932. With NCI-H838 the relative viability was 0.748. NCI-H1355 gave a relative viability of 1.05. For NCI-H1437, the relative viability was 0.523. With NCI-H1650 the relative viability was 0.213. NCI-H1651 gave a relative viability of 0.873. In the case of NCI-H1666, the relative viability is reported as 1.02. NCI-H1734 was tested, and the relative viability was 0.961. Cell Line NCI-H1755 has a relative viability of 0.971. With NCI-H1915 the relative viability was 0.871. In the case of NCI-H1975, the relative viability is reported as 0.258. In the case of NCI-H1993, the relative viability is reported as 1.21. NCI-H2009 gave a relative viability of 1.09. For NCI-H2023, the relative viability was 1.08. Work on NCI-H2085 yielded a relative viability of 0.976. NCI-H2087 gave a relative viability of 0.821. NCI-H2126 was tested, and the relative viability was 1.14. For NCI-H2228, the relative viability was 1.52. NCI-H2405 gave a relative viability of 0.943. Cell Line NCI-H3122 has a relative viability of 0.872. PC-3 [JPC-3] showed a relative viability of 0.905. PC-14 gave a relative viability of 0.898. Work on RERF-LC-KJ yielded a relative viability of 1.39. Cell Line SK-LU-1 has a relative viability of 1.02.

Same assay, conditions: first compound 0.1 µM
Work on LXF-289 yielded a relative viability of 0.995. NCI-H23 gave a relative viability of 1.13. In the case of NCI-H322M, the relative viability is reported as 1.18. NCI-H441 was tested, and the relative viability was 0.613. With NCI-H460 the relative viability was 1.69. For NCI-H520, the relative viability was 0.696. NCI-H596 showed a relative viability of 1.28. NCI-H647 showed a relative viability of 0.897. NCI-H650 was tested, and the relative viability was 0.758. Work on NCI-H661 yielded a relative viability of 0.866. With NCI-H838 the relative viability was 0.87. NCI-H1355 was tested, and the relative viability was 1.25. NCI-H1437 gave a relative viability of 0.553. NCI-H1650 was tested, and the relative viability was 0.231. NCI-H1651 gave a relative viability of 1.02. NCI-H1666 showed a relative viability of 0.747. With NCI-H1734 the relative viability was 0.949. In the case of NCI-H1755, the relative viability is reported as 0.947. Cell Line NCI-H1915 has a relative viability of 1.04. In the case of NCI-H1975, the relative viability is reported as 0.429. In the case of NCI-H1993, the relative viability is reported as 1.27. NCI-H2009 gave a relative viability of 0.952. In the case of NCI-H2023, the relative viability is reported as 0.864. Cell Line NCI-H2085 has a relative viability of 1.02. Cell Line NCI-H2087 has a relative viability of 1.03. NCI-H2126 gave a relative viability of 1.11. NCI-H2347 showed a relative viability of 0.862. With NCI-H2405 the relative viability was 0.908. With PC-3 [JPC-3] the relative viability was 0.826. Cell Line PC-14 has a relative viability of 0.854. In the case of RERF-LC-KJ, the relative viability is reported as 1.24. In the case of SK-LU-1, the relative viability is reported as 1.61.

Same assay, conditions: first compound 0.3162 µM
Cell Line LXF-289 has a relative viability of 1. Cell Line NCI-H23 has a relative viability of 0.957. NCI-H322M gave a relative viability of 1.28. In the case of NCI-H441, the relative viability is reported as 0.519. In the case of NCI-H460, the relative viability is reported as 1.37. In the case of NCI-H520, the relative viability is reported as 0.542. NCI-H596 gave a relative viability of 0.96.

— the supplement of paper PMC10307832
